Columns and labels:
[1] = Curcumin detection by HPLC-UV in the 0.25% w/w solution of Composition A in buffer; format: physicochemical; conditions: due to incomplete solubility in the buffers
[2] = Intestinal passage test: curcumin passage through the Caco-2 monolayer, HPLC-UV; conditions: human
Protocol: The passage through a monolayer of Caco-2 cells of Composition A at non-cytotoxic concentration is monitored at defined times (0 min- 15 min -30 min and 60 min).
The Caco-2 cells grown as a monolayer on a permeable artificial support reproduce the intestinal epithelial layer (monolayer of cells that are polarized and coupled by tight junctions). The flow through the monolayer allows to establish the permeability of a substance.
After 21 days of growth on insert, the differentiated cells show an apical side, corresponding to the intestinal lumen in vivo, and one that corresponds to the basolateral compartment of the blood and lymphatic circulation of the organism.
The culture medium is aspirated from all cell monolayers before the experiments of permeability. All cell monolayers are washed once with HBSS solution (Hank's Balanced Salt Solution) and left to equilibrate at 37°C for 20 min. […] In parallel, the same amount of substance is divided into equal aliquots and represents the apical sample at time = 0 minutes (0'AP). At the receiving side of the monolayer 1.2 mL of 1X HBSS-Hepes 1% (pH 7.4) are added. […]
Using the mathematical formulas described by Arturrson the relationships are calculated between concentrations of substances in the basolateral (receiver) and in the apical (donor) compartments at each sampling time.

For `COc1cc(/C=C/C(=O)CC(=O)/C=C/c2ccc(O)c(OC)c2)ccc1O` [Curcumin, curcumin], the “loss in title (theoretical curcumin content not detected in the solution)” value [1] was 23% and the Papp A→B at 60 min, 1.404 mM [2] was 0.804 ×10⁻⁶ cm/s.

— patent publication EP2849731B1, “FORMULATION FOR LOW BIOAVAILABILITY SUBSTANCES CONTAINING A N-ACETYLCYSTEINE-CHITOSAN SALT” (Labomar S.r.l., priority 2012, dated 2013)
